Experimental data from US8889639B2, “Compositions and methods for modulating PGC-1β to treat lipid-related diseases and disorders” (Dana-Farber Cancer Institute, Inc., priority 2004, dated 2014).

Key:
[1] = system: LXRα; assay: 4×LXRE-luc reporter in H2.35 hepatoma cells; type: cell-based, mouse; conditions: reporter containing multimerized LXR responsive elements, RNAi cotransfection
Method: FIG. 6A-E illustrate the coactivation of LXRα by PGC-1α and PGC-1β. In particular, FIG. 6A depicts H2.35 hepatoma cells that were transiently transfected with 4×LXRE-luc in combination with plasmids. Transfected cells were treated with either vehicle DMSO (open box) or 10 μM of the LXR agonist T0901317 (filled box) for 24 hours before luciferase assay. FIG. 6B depicts H2.35 hepatoma cells that were transiently transfected with wild-type ABCA1 promoter reporter plasmid-(ABCA1-luc) or a mutant lacking the LXRE (ABCA1 ΔLXRE-luc) in combination with plasmids. Transfected cells were treated with vehicle or T0901317 as described in FIG. 6A. FIG. 6C depicts CHIP analysis on LXR target genes. H2.35 cells were infected with adenoviruses expressing GFP, flag-PGC-1α or flag-PGC-1β. Cells were treated with 10 μM of T0901317 for 3 hours before harvesting. PCR was performed on input or precipitated DNA using primers as indicated FIG. 6D depicts the interaction between LXRα and the N-termini of the PGC-1β proteins. […]
FIGS. 7A-H illustrate the requirement for PGC-1β in SREBP-mediated transcription. […] Luciferase activity was measured 48 hours after transfection. […] Total RNA was isolated from infected cells and analyzed by real-time PCR using primers specific for the genes. […] Relative SREBP1c expression was determined by real-time PCR analysis and normalized to 18S rRNA. […]

[2] = system: SREBP2 and SREBP1a; assay: FAS -700 luc reporter with SREBP2 and SREBP1a and PGC-1β RNAi constructs in hepatoma cells; type: cell-based, mouse; conditions: FAS promoter reporter
Text: (§1) FIGS. 7A-H illustrate the requirement for PGC-1β in SREBP-mediated transcription. In particular, FIG. 7A depicts knockdown of PGC-1β protein levels by RNAi constructs. Cultured 293 cells were transiently transfected with PGC-1β expression plasmid (f-PGC-1β) in the presence of RNAi constructs or a vector control. Transfected cells were harvested for immunoblotting using a monoclonal antibody against the Flag epitope. Both RNAi constructs decrease PGC-1β protein levels compared to the vector control. FIGS. 7 B-E depict hepatoma cells that were transiently transfected with FAS—700 luc (B-C), G6Pase −1200 luc (D) or 4×LXRE-luc (E) in combination with plasmids. For RNAi, either a vector control or RNAi constructs directed toward PGC-1β were included in the transfection experiments. Luciferase activity was measured 48 hours after transfection. FIG. 7F depicts knockdown of PGC-1β protein by adenoviral expression of RNAi. H2.35 hepatoma cells were infected with Ad-GFP or Ad-RNAi for two days and then infected with Ad-PGC-1β. Total lysates were prepared for immunoblotting analysis using antibodies raised against PGC-1β. […] Total RNA was isolated from infected cells and analyzed by real-time PCR using primers specific for the genes. […] Relative SREBP1c expression was determined by real-time PCR analysis and normalized to 18S rRNA. […]

[3] = system: G6Pase promoter; assay: G6Pase -1200 luc reporter with PGC-1α and HNF4α and PGC-1β RNAi constructs in hepatoma cells; type: cell-based, mouse
Text: as §1

[4] = system: PGC-1β; assay: Free fatty acid treatment of primary hepatocytes, PGC-1β mRNA by real-time PCR; type: cell-based, mouse; conditions: 400 μM fatty acid, 4 hours
Text: FIGS. 1A-D depict the induction of PGC-1β expression by dietary intake of saturated fats. In particular, FIG. 1A depicts a cluster analysis of liver gene expression in response to high-fat feeding. FIG. 1A exemplifies genes involved in hepatic lipogenesis that are induced more than 1.8-fold in response to high-fat feeding. A representative probe set was used in generating the tree in the event multiple probe sets were available for a single gene. SREBP1c and PGC-1β were included in this lipogenic cluster. FIG. 1B depicts the real-time PCR analysis of total liver RNA from mice fed a high-fat diet for 1 day (hatched box) or 2 days (filled box). Relative mRNA abundance was calculated by normalization to the control chow values (open box); N=4;*: p<0.01. FIG. 1C depicts the real-time PCR analysis of total liver RNA from mice fed a control diet containing 0.07% cholesterol (open box) or a diet containing 2% cholesterol for 1 day (hatched box) or 2 days (filled box). Values were normalized to those from mice fed the control diet; N=4;*: p<0.02. FIG. 1D depicts the regulation of PGC-1β expression by free fatty acids in isolated hepatocytes. Primary hepatocytes were treated with 400 μM of various fatty acids for 4 hours. Total RNA was isolated and analyzed by realtime PCR using primers specific for […] and PGC-1β (open box); *: p<0.01.
Primary hepatocytes were isolated following perfusion of whole liver first with perfusion buffer (Hank's Balanced Saline, HBSS) and then a collagenase solution (HBSS with 1% BSA and 0.05% collagenase). Dispersed cells were resuspended and seeded onto collagen-coated plates in DMEM supplemented with 10% FBS in the presence of 1 mM sodium pyruvate, 1 μM dexamethasone and 50 nM insulin. The cells were subsequently maintained in DMEM supplemented with 0.1% BSA and 1 mM sodium pyruvate for 24 hours before treatments. Free fatty acids were dissolved in ethanol as 100 mM stock solutions for further dilution in DMEM supplemented with 0.5% BSA to a final concentration of 400 μM. Hepatocytes were treated for 4 hours before RNA isolation and analysis.
(§2) Total RNA was isolated from liver or cultured hepatocytes using Trizol reagent (Invitrogen™). For real-time PCR analysis, cDNA was synthesized by reverse transcription using random primers and subjected to PCR amplification with genespecific primers in the presence of Cybergreen (Biorad™). Relative abundance of mRNA was calculated after normalization to 18S ribosomal RNA. For hybridization, 20 μg of total RNA was resolved on a formaldehyde gel, transferred to nylon membrane and hybridized with 32P-labeled gene-specific probes. Hybridization to ribosomal protein 36B4 was included as loading control.

[5] = system: hepatic gene expression; assay: High-cholesterol feeding, liver gene expression by real-time PCR; type: in vivo, mouse; conditions: diet containing 2% cholesterol vs 0.07% control
Method: Animals were fed a standard rodent chow and housed in a controlled environment with twelve-hour light and dark cycles. For high-fat feeding, three-month old male C57/B16J mice were switched to a diet containing 58% fat-derived calorie (D12331, Research Diets™) for 24 or 48 hours. For high-cholesterol feeding, two groups of mice were fed a base diet supplemented with either 0.07% or 2% cholesterol for 24 or 48 hours. Liver was dissected and immediately frozen for RNA isolation. The feeding experiments were repeated three times with four mice per group for each dietary treatment.
as §2
To examine whether dietary cholesterol had any impact on the expression of SREBPs and PGC-1β mice were fed a control diet containing 0.07% cholesterol or a similar diet containing 2% cholesterol. […] This induction of the genetic program of hepatic lipogenesis following acute intake of a high saturated fat diet was not previously observed.

[6] = system: PGC-1α; assay: Free fatty acid treatment of primary hepatocytes, PGC-1α mRNA by real-time PCR; type: cell-based, mouse; conditions: 400 μM fatty acid, 4 hours
Method: FIG. 1D depicts the regulation of PGC-1β expression by free fatty acids in isolated hepatocytes. Primary hepatocytes were treated with 400 μM of various fatty acids for 4 hours. Total RNA was isolated and analyzed by realtime PCR using primers specific for PGC-1β (filled box) and PGC-1β (open box); *: p<0.01.
Total RNA was isolated from liver or cultured hepatocytes using Trizol reagent (Invitrogen™). […] Relative abundance of mRNA was calculated after normalization to 18S ribosomal RNA.

5′-GATATCCTCTGTGATGTTA-3′ (expressed or natural sequence) [SEQ ID NO 60, PGC-1β RNAi construct in pSUPER-retro vector under the H1-RNA promoter]
LXRα/RXRα transcriptional activity [1]: do not alter | SREBP transcriptional activity with SREBP2 and SREBP1a [2]: very similar reduction | regulation of G6Pase promoter activity by PGC-1α and HNF4α [3]: little or no effect

5′-GTACGGAACTGCATAAGCA-3′ (expressed or natural sequence; the letters are possibly those of the target site) [SEQ ID NO:61, PGC-1β RNAi construct in pSUPER-retro vector under the H1-RNA promoter]
LXRα/RXRα transcriptional activity [1]: do not alter | SREBP transcriptional activity with SREBP2 and SREBP1a [2]: very similar reduction | regulation of G6Pase promoter activity by PGC-1α and HNF4α [3]: little or no effect

CC/C=C\C/C=C\C/C=C\C/C=C\C/C=C\CCCC(=O)O [EPA]
PGC-1β expression [4]: only slightly induce

CCCCC/C=C\C/C=C\C/C=C\C/C=C\CCCC(=O)O [arachidonic acid]
PGC-1β expression [4]: only slightly induce

CC(C)CCC[C@@H](C)[C@H]1CC[C@H]2[C@@H]3CC=C4C[C@@H](O)CC[C@]4(C)[C@H]3CC[C@]12C [cholesterol]
SREBP1c mRNA [5]: slightly increased | expression of PGC-1β [5]: not altered | hepatic expression of mRNA encoding SREBP2, along with HMGCoA reductase [5]: suppresses | mRNA level of FAS, SCD-1 and glucose kinase (GK) [5]: remains largely unchanged

CCCCCCCC/C=C/CCCCCCCC(=O)O [elaidic acid]
expression of PGC-1α [6]: 3.2 fold

CCCCC/C=C\C/C=C\CCCCCCCC(=O)O [linoleic acid]
PGC-1β expression [4]: only slightly induce

CCCCCCCC/C=C\CCCCCCCC(=O)O [oleic acid]
PGC-1β expression [4]: only slightly induce

CCCCCCCCCCCCCCCCCC(=O)O [stearic acid]
PGC-1β mRNA [4]: 2.2 fold

CCCCCC/C=C/CCCCCCCCCC(=O)O [trans-vaccenic acid]
expression of PGC-1α [6]: 3.2 fold
